Target: T1, cereblon (Homo sapiens, UniProt Q96SW2)
T1 construct: gene CRBN; CRBN/DDB1−CUL4A−Rbx1 complex (BPS Bioscience catalog no. 79770); with DDB1−CUL4A−Rbx1; BRD3
Assay: AlphaScreen bead-based cereblon/BRD3 binding assay (called FRET in the text)

T1 sequence (Q96SW2 whole entry): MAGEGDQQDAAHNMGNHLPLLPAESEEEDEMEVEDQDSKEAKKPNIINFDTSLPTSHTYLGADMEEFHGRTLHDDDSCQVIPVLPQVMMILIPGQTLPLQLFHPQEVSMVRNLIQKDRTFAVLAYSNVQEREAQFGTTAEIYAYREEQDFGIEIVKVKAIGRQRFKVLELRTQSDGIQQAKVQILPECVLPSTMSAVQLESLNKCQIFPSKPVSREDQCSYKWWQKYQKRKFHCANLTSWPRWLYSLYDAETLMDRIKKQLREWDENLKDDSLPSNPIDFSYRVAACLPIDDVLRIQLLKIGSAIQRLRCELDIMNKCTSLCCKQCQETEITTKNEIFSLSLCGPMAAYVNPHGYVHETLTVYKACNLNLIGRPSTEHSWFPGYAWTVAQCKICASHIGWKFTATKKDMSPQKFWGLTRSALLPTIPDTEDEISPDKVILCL
T1 sequence (Q16531 2-1140 partner): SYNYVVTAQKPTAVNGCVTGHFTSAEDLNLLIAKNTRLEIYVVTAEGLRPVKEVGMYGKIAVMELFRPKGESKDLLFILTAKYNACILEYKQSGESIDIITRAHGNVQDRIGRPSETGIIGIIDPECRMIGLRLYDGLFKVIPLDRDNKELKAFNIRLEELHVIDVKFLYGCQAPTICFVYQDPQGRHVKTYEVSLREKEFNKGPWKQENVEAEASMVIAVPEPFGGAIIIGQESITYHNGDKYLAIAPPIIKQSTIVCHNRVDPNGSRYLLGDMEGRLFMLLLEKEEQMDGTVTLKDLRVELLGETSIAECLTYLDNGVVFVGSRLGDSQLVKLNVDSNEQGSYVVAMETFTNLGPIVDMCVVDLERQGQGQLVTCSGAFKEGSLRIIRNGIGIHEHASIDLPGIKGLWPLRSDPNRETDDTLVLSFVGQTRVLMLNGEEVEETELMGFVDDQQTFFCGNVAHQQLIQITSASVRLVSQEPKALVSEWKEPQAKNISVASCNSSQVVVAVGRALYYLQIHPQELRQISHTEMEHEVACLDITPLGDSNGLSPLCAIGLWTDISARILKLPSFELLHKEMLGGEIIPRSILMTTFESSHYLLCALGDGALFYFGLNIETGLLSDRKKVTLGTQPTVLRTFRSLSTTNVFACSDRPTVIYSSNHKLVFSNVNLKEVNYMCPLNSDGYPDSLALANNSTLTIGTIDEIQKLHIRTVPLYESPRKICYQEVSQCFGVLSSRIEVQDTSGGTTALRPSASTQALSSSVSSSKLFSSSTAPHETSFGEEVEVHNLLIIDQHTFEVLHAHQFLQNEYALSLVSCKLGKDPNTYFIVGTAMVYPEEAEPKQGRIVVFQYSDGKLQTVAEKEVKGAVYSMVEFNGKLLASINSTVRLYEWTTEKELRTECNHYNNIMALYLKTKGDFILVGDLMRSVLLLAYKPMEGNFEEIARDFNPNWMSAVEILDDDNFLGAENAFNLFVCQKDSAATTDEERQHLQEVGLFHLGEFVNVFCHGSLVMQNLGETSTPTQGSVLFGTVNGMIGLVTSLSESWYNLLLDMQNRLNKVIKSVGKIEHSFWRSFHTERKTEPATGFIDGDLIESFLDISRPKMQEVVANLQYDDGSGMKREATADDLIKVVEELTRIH
T1 sequence (Q13619 whole entry partner): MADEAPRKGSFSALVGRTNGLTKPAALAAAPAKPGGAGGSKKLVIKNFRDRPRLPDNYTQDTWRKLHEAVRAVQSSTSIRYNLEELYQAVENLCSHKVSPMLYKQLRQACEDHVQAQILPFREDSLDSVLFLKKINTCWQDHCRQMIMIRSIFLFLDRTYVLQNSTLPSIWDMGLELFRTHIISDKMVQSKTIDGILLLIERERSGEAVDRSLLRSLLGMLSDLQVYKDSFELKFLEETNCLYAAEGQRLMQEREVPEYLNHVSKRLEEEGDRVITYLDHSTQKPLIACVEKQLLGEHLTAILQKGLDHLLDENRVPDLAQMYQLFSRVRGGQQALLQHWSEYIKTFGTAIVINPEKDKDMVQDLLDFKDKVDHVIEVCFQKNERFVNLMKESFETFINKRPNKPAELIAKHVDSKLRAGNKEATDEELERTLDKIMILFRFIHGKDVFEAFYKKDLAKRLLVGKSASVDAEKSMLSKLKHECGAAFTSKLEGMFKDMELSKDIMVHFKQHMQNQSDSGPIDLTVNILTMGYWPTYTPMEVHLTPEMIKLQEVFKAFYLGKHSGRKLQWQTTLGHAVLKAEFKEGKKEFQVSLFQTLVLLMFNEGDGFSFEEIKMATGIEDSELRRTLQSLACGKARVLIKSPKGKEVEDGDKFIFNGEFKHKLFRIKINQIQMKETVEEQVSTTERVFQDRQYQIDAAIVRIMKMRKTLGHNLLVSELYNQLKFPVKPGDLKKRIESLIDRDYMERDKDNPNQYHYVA
T1 sequence (P62877 whole entry partner): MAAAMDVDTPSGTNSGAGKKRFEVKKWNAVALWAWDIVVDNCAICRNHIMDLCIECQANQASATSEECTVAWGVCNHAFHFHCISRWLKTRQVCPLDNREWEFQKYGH

IC50: 2660 nM
SMILES: Nc1ccc(F)c2c1C(=S)N(C1CCC(=S)NC1=O)C2=O (stereo not shown) [F-3,6′-DP]

From paper PMC9598880, “Activity of a Novel Anti-Inflammatory Agent F-3,6′-dithiopomalidomide as a Treatment for Traumatic Brain Injury” (Biomedicines, 2022)
